Test results published in ChEMBL document CHEMBL5614401 (Eur J Med Chem, 2024).
Blank lines part the entries; values can stand above or below the molecule they belong to. Calls of active or inactive are those of the source. The calls are words filed in the database; no cut-off is given here.

Legend:
Mus musculus [1] = experiment: (§1) Anti-hyperuricemic activity against potassium oxonate-induced male Kunming mouse model assessed as alleviation of glomerular ischemia in kidney at 10 mg/kg, po via gavage administered 1 hr post-potassium oxonate challenge and measured after 7 days on day 7 potassium oxonate injected after 12 hrs fasting and measured followed by 1.5 hrs of compound administration by H and E staining based analysis; type: functional, organism-based; settings: time 7.0 day
[2] = Half life in male Sprague-Dawley rat at 10 mg/kg, po measured after 24 hrs by LC-MS/MS analysis; type: ADME, organism-based; settings: in vivo
Mus musculus [3] = experiment: as §1, with “casts formation” for “glomerular ischemia”; type: functional, organism-based; settings: time 7.0 day
[4] = (§2) Renal toxicity in potassium oxonate-induced male Kunming mouse model assessed as effect on kidney damage at 10 mg/kg,po via gavage administered 1 hr post-potassium oxonate challenge and measured after 7 days on day 7 potassium oxonate injected after 12 hrs fasting and measured followed by 1.5 hrs of compound administration; type: organism-based; settings: in vivo, 168 h, time 7 day
Mus musculus [5] = experiment: as §1, with “shrinkage” for “glomerular ischemia”; type: functional, organism-based; settings: time 7.0 day
HK-2 [6] = experiment: Cytotoxicity against human HK-2 cells assessed as cell viability at <100 uM incubated for 24 hrs by MTT assay; type: toxicity, cell-based; settings: hk-2, 24 h
[7] = molecular target: T1, Solute carrier family 2, facilitated glucose transporter member 9 (Homo sapiens) (UniProt Q9NRM0); experiment: Inhibition of GLUT9 (unknown origin) overexpressed in uric acid-induced HEK293 cells at 25 uM by patch clamp analysis relative to control; type: cell-based
T1 sequence (whole entry): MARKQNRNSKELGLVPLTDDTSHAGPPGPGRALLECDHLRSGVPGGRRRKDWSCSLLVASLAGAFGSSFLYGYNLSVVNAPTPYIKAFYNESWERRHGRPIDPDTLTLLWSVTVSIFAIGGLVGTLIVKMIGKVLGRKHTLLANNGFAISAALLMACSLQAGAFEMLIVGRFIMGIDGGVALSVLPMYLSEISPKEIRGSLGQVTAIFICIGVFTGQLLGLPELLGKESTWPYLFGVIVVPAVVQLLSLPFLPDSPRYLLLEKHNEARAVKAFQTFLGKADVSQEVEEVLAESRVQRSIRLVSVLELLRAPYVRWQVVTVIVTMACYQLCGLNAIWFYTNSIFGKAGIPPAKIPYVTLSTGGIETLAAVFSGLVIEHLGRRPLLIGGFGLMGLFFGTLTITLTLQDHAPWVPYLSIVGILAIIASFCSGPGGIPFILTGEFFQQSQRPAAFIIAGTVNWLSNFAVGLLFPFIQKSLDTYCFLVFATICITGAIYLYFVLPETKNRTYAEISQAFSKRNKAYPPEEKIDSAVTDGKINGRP

Mus musculus [8] = experiment: as §1, with “increase” for “alleviation of glomerular ischemia”, “urine uric acid level” for “kidney”, “(reference value: 481.6 microM)” for “by H and E staining based analysis”; type: functional
[9] = as §2, with “reduction in BUN level in serum” for “effect on kidney damage”, “administration by biochemical analyzer” for “administration”; type: organism-based; settings: in vivo, 168 h, time 7 day
HK-2 [10] = experiment: Cytotoxicity against human HK-2 cells assessed as cell viability at 100 uM incubated for 48 hrs by MTT assay; type: toxicity, cell-based; settings: hk-2, 48 h
Mus musculus [11] = experiment: as §1, with “reduction” for “alleviation of glomerular ischemia”, “serum uric acid level” for “kidney”, “administration” for “administration by H and E staining based analysis”; type: functional; settings: time 7 day
[12] = AUC (0 to infinity) in male Sprague-Dawley rat at 10 mg/kg, po measured after 24 hrs by LC-MS/MS analysis; type: ADME, organism-based; settings: in vivo
[13] = Cmax in male Sprague-Dawley rat at 10 mg/kg, po measured after 24 hrs by LC-MS/MS analysis; type: ADME, organism-based; settings: in vivo
[14] = MRT (0 to infinity) in male Sprague-Dawley rat at 10 mg/kg, po measured after 24 hrs by LC-MS/MS analysis; type: ADME, organism-based; settings: in vivo
[15] = as §2, with “reduction in CR level in serum” for “effect on kidney damage”, “administration by biochemical analyzer” for “administration”; type: organism-based; settings: in vivo, 168 h, time 7 day
[16] = molecular target: T2, Solute carrier family 22 member 12 (Homo sapiens, UniProt Q96S37); experiment: Inhibition of human URAT1 transfected in HEK293 cells by measuring 14C-uric acid uptake preincubated for 30 mins followed by 14--uric acid addition and measured after 15 mins by liquid scintillation counter analysis; type: cell-based
T2 sequence (Q96S37 whole entry): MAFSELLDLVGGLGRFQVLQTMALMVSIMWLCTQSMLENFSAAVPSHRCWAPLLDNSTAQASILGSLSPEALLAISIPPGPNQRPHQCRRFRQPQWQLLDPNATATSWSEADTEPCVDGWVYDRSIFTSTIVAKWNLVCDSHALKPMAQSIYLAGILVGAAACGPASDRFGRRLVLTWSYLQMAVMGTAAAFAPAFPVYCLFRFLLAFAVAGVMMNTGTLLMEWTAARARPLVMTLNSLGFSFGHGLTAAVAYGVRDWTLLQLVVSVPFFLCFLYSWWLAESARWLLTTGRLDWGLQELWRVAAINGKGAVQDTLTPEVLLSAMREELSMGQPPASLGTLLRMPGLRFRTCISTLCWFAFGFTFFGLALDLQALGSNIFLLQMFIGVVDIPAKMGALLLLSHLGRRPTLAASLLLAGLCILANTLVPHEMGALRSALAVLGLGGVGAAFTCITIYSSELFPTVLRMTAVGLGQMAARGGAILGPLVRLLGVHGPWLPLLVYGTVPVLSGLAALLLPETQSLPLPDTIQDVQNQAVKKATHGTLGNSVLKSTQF

Mus musculus [17] = experiment: as §1, with “renal tubule dilatation” for “glomerular ischemia in kidney”; type: functional, organism-based; settings: time 7.0 day
[18] = Tmax in male Sprague-Dawley rat at 10 mg/kg, po measured after 24 hrs by LC-MS/MS analysis; type: ADME, organism-based; settings: in vivo
[19] = molecular target: T3, Solute carrier family 2, facilitated glucose transporter member 9 (Homo sapiens, UniProt Q9NRM0); experiment: Inhibition of GLUT9 (unknown origin) overexpressed in uric acid-induced HEK293 cells by patch clamp analysis; type: cell-based
T3 sequence (Q9NRM0 whole entry): T1 sequence (whole entry)

[20] = molecular target: T2, Solute carrier family 22 member 12; experiment: Inhibition of human URAT1 transfected in HEK293 cells by measuring 14C-uric acid uptake at 5 uM preincubated for 30 mins followed by 14--uric acid addition and measured after 15 mins by liquid scintillation counter analysis relative to control; type: cell-based; settings: 0.25 h, time 45 min
[21] = molecular target: T2, Solute carrier family 22 member 12; experiment: Inhibition of URAT1 (unknown origin)
[22] = Cytotoxicity against human HK-2 cells assessed as cell viability at 100 uM incubated for 48 hrs by MTT assay relative to control; type: toxicity, cell-based; settings: read-out: Activity

half-life [2]: 4.52 h | inhibition [7]: 25.5% | AUC(0-inf) [12]: 5.56 µg·h/mL | Cmax [13]: 1.41 µg/mL | MRT inf [14]: 8.48 h | IC50 [16]: 0.36 µM | Tmax [18]: 1.63 h
Compound: C/C(=C\Cc1c(O)ccc2c1OC(c1cccs1)CC2=O)C(=O)O (stereo not drawn)
Activity (Mus musculus [1]): Active | Activity (Mus musculus [3]): Active | Activity [4]: Non-Toxic | Activity (Mus musculus [5]): Active | Activity (HK-2 [6]): Toxic | Activity (Mus musculus [8]; time 7 day): 630.52 µM | Activity [9]: Non-Toxic | Activity (HK-2 [10]): Non-Toxic | Activity (Mus musculus [11]): 366.12 µM | Activity [15]: Non-Toxic | Activity (Mus musculus [17]): Active

IC50 [19]: 1.84 µM | half-life [2]: 6.01 h | inhibition [7]: 95.5% | AUC(0-inf) [12]: 7.46 µg·h/mL | inhibition at 5 µM [20]: 93.3% | IC50 [21]: 0.22 µM | Cmax [13]: 1.11 µg/mL | MRT inf [14]: 9.16 h | IC50 [16]: 0.24 µM | Tmax [18]: 1.12 h
Compound: CC(C)=CCc1c(O)ccc2c1OC(c1ccc(O)cc1)CC2=O (stereo not drawn)

IC50 [16]: 4.24 µM
Compound: O=C(O)/C=C/Cc1cccc2c1OC(c1ccc(O)cc1)CC2=O (stereo not drawn)

IC50 [16]: 3.02 µM
Compound: O=C(O)/C=C/Cc1c(O)ccc2c1OC(c1ccc(O)cc1)CC2=O (stereo not drawn)

half-life [2]: 4.66 h | inhibition [7]: 8.21% | AUC(0-inf) [12]: 8.27 µg·h/mL | Cmax [13]: 1.38 µg/mL | MRT inf [14]: 7.54 h | IC50 [16]: 0.19 µM | Tmax [18]: 1.5 h
Compound: C/C(=C\Cc1c(O)ccc2c1OC(c1ccc(Br)c3ccccc13)CC2=O)C(=O)O (stereo not drawn)
Activity (Mus musculus [1]): Active | Activity (Mus musculus [3]): Active | Activity [4]: Non-Toxic | Activity (Mus musculus [5]): Active | Activity (HK-2 [6]): Toxic | Activity (Mus musculus [8]; time 7.0 day): Active | Activity [9]: Non-Toxic | Activity (HK-2 [10]): Non-Toxic | Activity (Mus musculus [11]): 397.87 µM | Activity [15]: Non-Toxic | Activity (Mus musculus [17]): Active

half-life [2]: 5.14 h | inhibition [7]: 22.7% | AUC(0-inf) [12]: 14.7 µg·h/mL | Cmax [13]: 2.09 µg/mL | MRT inf [14]: 11.4 h | IC50 [16]: 0.86 µM | Tmax [18]: 0.83 h
Compound: C/C(=C\Cc1cccc2c1OC(c1cccs1)CC2=O)C(=O)O (stereo not drawn)
Activity (Mus musculus [1]): Active | Activity (Mus musculus [3]): Active | Activity [4]: Non-Toxic | Activity (Mus musculus [5]): Active | Activity (HK-2 [6]): Toxic | Activity (Mus musculus [8]; time 7 day): 648.21 µM | Activity [9]: Non-Toxic | Activity (HK-2 [10]): Non-Toxic | Activity (Mus musculus [11]): 317.1 µM | Activity [15]: Non-Toxic | Activity (Mus musculus [17]): Active

inhibition at 5 µM [20]: 11.3%
Compound: CC(C)=CCc1c(O)ccc2c1OC(c1ccc(Cl)cc1)CC2=O (stereo not drawn)

IC50 [19]: 4.47 µM | half-life [2]: 7.88 h | inhibition [7]: 91% | AUC(0-inf) [12]: 18.7 µg·h/mL | Cmax [13]: 2.25 µg/mL | MRT inf [14]: 10.2 h | IC50 [16]: 0.16 µM | Tmax [18]: 1.15 h
Compound: C/C(=C\Cc1cccc2c1OC(c1ccc(Br)c3ccccc13)CC2=O)C(=O)O (stereo not drawn)
Activity (Mus musculus [1]): Active | Activity (Mus musculus [3]): Active | Activity [4]: Non-Toxic | Activity (Mus musculus [5]): Active | Activity (HK-2 [6]): Toxic | Activity (Mus musculus [8]; time 7 day): 642.1 µM | Activity [9]: Non-Toxic | Activity (Mus musculus [11]): 319.1 µM | Activity [15]: Non-Toxic | viability at 48 h, 100 µM [22]: 62.1% | Activity (Mus musculus [17]): Active

IC50 [16]: 0.98 µM
Compound: C/C(=C\Cc1cccc2c1OC(c1cc(Br)cs1)CC2=O)C(=O)O (stereo not drawn)

IC50 [16]: 2.5 µM
Compound: O=C(O)/C=C/Cc1cccc2c1OC(c1cccs1)CC2=O (stereo not drawn)

inhibition at 5 µM [20]: 72.3%
Compound: CC(C)=CCc1c(O)ccc2c1OC(c1ccsc1)CC2=O (stereo not drawn)

inhibition [7]: 8.33% | IC50 [16]: 0.23 µM
Compound: C/C(=C\Cc1c(O)ccc2c1OC(c1csc3ccccc13)CC2=O)C(=O)O (stereo not drawn)
Activity (Mus musculus [1]): Active | Activity (Mus musculus [3]): Active | Activity [4]: Non-Toxic | Activity (Mus musculus [5]): Active | Activity (HK-2 [6]): Toxic | Activity (Mus musculus [8]; time 7 day): 599.6 µM | Activity [9]: Non-Toxic | Activity (HK-2 [10]): Non-Toxic | Activity (Mus musculus [11]): 392.02 µM | Activity [15]: Non-Toxic | Activity (Mus musculus [17]): Active

inhibition at 5 µM [20]: 13.4%
Compound: CC(C)=CCc1c(O)ccc2c1OC(c1cc3ccccc3s1)CC2=O (stereo not drawn)

IC50 [16]: 0.65 µM
Compound: O=C(O)C/C=C/Cc1c(O)ccc2c1OC(c1csc3ccccc13)CC2=O (stereo not drawn)

IC50 [16]: 2.86 µM
Compound: C/C(=C\Cc1c(O)ccc2c1OC(c1ccc(Cl)cc1)CC2=O)C(=O)O (stereo not drawn)

IC50 [16]: 0.83 µM
Compound: C/C(=C\Cc1c(O)ccc2c1OC(c1ccc(Br)cc1)CC2=O)C(=O)O (stereo not drawn)

IC50 [16]: 0.73 µM
Compound: O=C(O)/C=C/Cc1cccc2c1OC(c1ccc(Br)c3ccccc13)CC2=O (stereo not drawn)

inhibition at 5 µM [20]: 4.4%
Compound: CC(C)=CCc1c(O)ccc2c1OC(c1ccc(F)cc1)CC2=O (stereo not drawn)
